Measured values as given in patent US20240002393A1, “SUBSTITUTED BENZO[f][l ,2,4JTRIAZOL0[4,3-a][l ,4J[…] GABA A GAMMA! POSITIVE ALLOSTERIC MODULATORS” (Hoffmann-La Roche Inc., priority 2020, published 2024).

Target: h-GABA-A α2β2γ1 (Homo sapiens (Human), UniProt P47869+Q8N1C3)
Assay: Two-electrode voltage clamp electrophysiology in Xenopus oocytes expressing GABAA receptors
Format: cell-based
Details: for Efficacy (GABA)%: % modulation of GABA EC20 = 100*(Fold increase−1), compound at 30-fold Ki; for Fold increase h-GABA-A α2β2γ1 oocyte @ 30-fold Ki: GABA EC20, test compound at about 30-fold its Ki α2β2γ1, at least 3 oocytes
Experimental: Xenopus laevis oocytes at maturation stages V-VI were used for the expression of cloned mRNA encoding GABAA receptor subunits. Oocytes ready for RNA micro-injection were bought from Ecocyte, Castrop-Rauxel, Germany and stored in modified Barth's medium (composition in mM: NaCl 88, KCl 1, NaHCO3 2.4, HEPES 10, MgSO4 0.82, CaNO3 0.33, CaCl2 0.33, pH=7.5) at 20° C. until the experiment.
Oocytes were plated in 96-well plates for microinjection using the Roboinject automated instrument (MultiChannelSystems, Reutlingen, Germany). Approximately 50 nL of an aqueous solution containing the RNA transcripts for the subunits of the desired GABAA receptor subtype was injected into each oocyte. […] Oocytes were kept in modified Barth's medium (composition in mM: NaCl 88, KCl 1, NaHCO3 […], HEPES 10, MgSO4 0.82, CaNO3 0.33, CaCl2 0.33, pH=7.5) at 20° C. until the experiment.
Electrophysiological experiments were performed using the Roboocyte instrument (MultiChannelSystems, Reutlingen, Germany) on days 3 to 5 after the micro-injection of mRNA. During the experiment the oocytes were constantly superfused by a solution containing (in mM) NaCl 90, KCl 1, HEPES 5, MgCl2 1 CaCl2 1 (pH 7.4). Oocytes were impaled by two glass microelectrodes (resistance: 0.5-0.8 MΩ) which were filled with a solution containing KCl 1M+K-acetate 1.5 M and voltage-clamped to −80 mV. The recordings were performed at room temperature using the Roboocyte two-electrode voltage clamp system (Multichannelsystem). After an initial equilibration period of 1.5 min GABA was added for 1.5 min at a concentration evoking approximately 20% of a maximal current response (EC20). After another rest interval of 2.5 min GABA was again added evoking a response of similar amplitude and shape. […] Current traces were recorded at a digitization rate of 10 Hz during and shortly before and after the GABA application.
Each compound and concentration was tested on at least 3 oocytes. Different oocytes were used for different compound concentrations.
For the analysis, the digitized current traces of the first and second GABA response were superimposed and, if necessary, rescaled to equal maximal amplitudes. The ratio between the two responses during the time interval of test compound application was calculated point by point. The extremum of the resulting “ratio trace” was taken as the efficacy (“Fold increase”) of the compound expressed as “% modulation of GABA EC20” (100*(Fold increase−1)).

Structure (SMILES) | Efficacy (GABA)% | Fold increase h-GABA-A α2β2γ1 oocyte @ 30-fold Ki
Cc1ccc(-c2nnc3n2-c2ccc(Cl)c(Br)c2C(c2c(F)cccc2F)=N[C@H]3C)nn1 [Example 88, (4S)-7-bromo-8-chloro-6-(2,6-difluorophenyl)-4-methyl-1-(6-methylpyridazin-3-yl)-4H-[1,2,4]triazolo[4,3-a][1,4]benzodiazepine] | 105% | 2.05
CCc1ccc2c(c1Cl)C(c1c(F)cccc1F)=N[C@@H](C)c1nnc(C)n1-2 [Example 109, (4S)-7-chloro-6-(2,6-difluorophenyl)-8-ethyl-1,4-dimethyl-4H-[1,2,4]triazolo[4,3-a][1,4]benzodiazepine] | 230% | 3.30
CC[C@@H]1N=C(c2c(F)cccc2F)c2c(ccc(Br)c2Cl)-n2c(C)nnc21 [Example 98, (4S)-8-bromo-7-chloro-6-(2,6-difluorophenyl)-4-ethyl-1-methyl-4H-[1,2,4]triazolo[4,3-a][1,4]benzodiazepine] | 107% | 2.07
Cc1nnc2n1-c1ccc(Br)c(Cl)c1C(c1c(F)cccc1F)=N[C@H]2CO [Example 101, [(4R)-8-bromo-7-chloro-6-(2,6-difluorophenyl)-1-methyl-4H-[1,2,4]triazolo[4,3-a][1,4]benzodiazepin-4-yl]methanol] | 119% | 2.19
Cc1cc(-c2nnc3n2-c2ccc(Cl)c(Cl)c2C(c2c(F)cccc2F)=N[C@H]3C)ncn1 [Example 94, (4S)-7,8-dichloro-6-(2,6-difluorophenyl)-4-methyl-1-(6-methylpyrimidin-4-yl)-4H-[1,2,4]triazolo[4,3-a][1,4]benzodiazepine] | 47% | 1.47
C[C@@H]1N=C(c2c(F)cccc2F)c2c(ccc(Cl)c2Br)-n2c(-c3cccnn3)nnc21 [Example 73, (4S)-7-bromo-8-chloro-6-(2,6-difluorophenyl)-4-methyl-1-(pyridazin-3-yl)-4H-benzo[f][1,2,4]triazolo[4,3-a][1,4]diazepine] | 105% | 2.05
C[C@@H]1N=C(c2ncccc2F)c2c(ccc(Cl)c2Cl)-n2c(C3CC3)nnc21 [Example 68, (4S)-7,8-dichloro-1-cyclopropyl-6-(3-fluoro-2-pyridyl)-4-methyl-4H-[1,2,4]triazolo[4,3-a][1,4]benzodiazepine] | 109% | 2.09
Cc1cc(-c2nnc3n2-c2ccc(Cl)c(Cl)c2C(c2c(F)cccc2F)=N[C@H]3C)nc(C)n1 [Example 96, (4S)-7,8-dichloro-6-(2,6-difluorophenyl)-1-(2,6-dimethylpyrimidin-4-yl)-4-methyl-4H-[1,2,4]triazolo[4,3-a][1,4]benzodiazepine] | 52% | 1.52
Cc1ccc2c(c1Cl)C(c1c(F)cccc1F)=N[C@@H](C)c1nnc(C)n1-2 [Example 97, (4S)-7-chloro-6-(2,6-difluorophenyl)-1,4,8-trimethyl-4H-[1,2,4]triazolo[4,3-a][1,4]benzodiazepine] | 148% | 2.48
C[C@@H]1N=C(c2ncccc2F)c2c(ccc(Br)c2Cl)-n2cnnc21 [Example 84, (4S)-8-bromo-7-chloro-6-(3-fluoro-2-pyridyl)-4-methyl-4H-[1,2,4]triazolo[4,3-a][1,4]benzodiazepine] | 203% | 3.03
Cc1nnc2n1-c1ccc(Br)c(Cl)c1C(c1c(F)cccc1F)=N[C@H]2C [Example 75, (4S)-8-bromo-7-chloro-6-(2,6-difluorophenyl)-1,4-dimethyl-4H-[1,2,4]triazolo[4,3-a][1,4]benzodiazepine] | 57% | 1.57
C[C@@H]1N=C(c2c(F)cccc2F)c2c(ccc(Br)c2Cl)-n2cnnc21 [Example 51, (4S)-8-bromo-7-chloro-6-(2,6-difluorophenyl)-4-methyl-4H-[1,2,4]triazolo[4,3-a][1,4]benzodiazepine] | 56% | 1.56
Cc1cc(-c2nnc3n2-c2ccc(Cl)c(Cl)c2C(c2c(F)cccc2F)=N[C@H]3C)on1 [Example 87, 5-[(4S)-7,8-dichloro-6-(2,6-difluorophenyl)-4-methyl-4H-[1,2,4]triazolo[4,3-a][1,4]benzodiazepin-1-yl]-3-methyl-isoxazole] | 42% | 1.42
COC[C@@H]1N=C(c2c(F)cccc2F)c2c(ccc(C(F)(F)F)c2Cl)-n2c(C)nnc21 [Example 105, (4R)-7-chloro-6-(2,6-difluorophenyl)-4-(methoxymethyl)-1-methyl-8-(trifluoromethyl)-4H-[1,2,4]triazolo[4,3-a][1,4]benzodiazepine] | 75% | 1.75
Cc1nccc(-c2nnc3n2-c2ccc(Cl)c(Cl)c2C(c2c(F)cccc2F)=N[C@H]3C)n1 [Example 95, (4S)-7,8-dichloro-6-(2,6-difluorophenyl)-4-methyl-1-(2-methylpyrimidin-4-yl)-4H-[1,2,4]triazolo[4,3-a][1,4]benzodiazepine] | 53% | 1.53
C[C@@H]1N=C(c2ncccc2F)c2c(ccc(Cl)c2Cl)-n2c(-c3cnn(C)c3)nnc21 [Example 67, (4S)-7,8-dichloro-6-(3-fluoro-2-pyridyl)-4-methyl-1-(1-methylpyrazol-4-yl)-4H-[1,2,4]triazolo[4,3-a][1,4]benzodiazepine] | 69% | 1.69
C[C@@H]1N=C(c2ncccc2F)c2c(ccc(Br)c2Cl)-n2c(C3CC3)nnc21 [Example 83, (4S)-8-bromo-7-chloro-1-cyclopropyl-6-(3-fluoro-2-pyridyl)-4-methyl-4H-[1,2,4]triazolo[4,3-a][1,4]benzodiazepine] | 102% | 2.02
Cc1nnc2n1-c1ccc(I)c(Cl)c1C(c1c(F)cccc1F)=N[C@H]2C [Example 102, (4S)-7-chloro-6-(2,6-difluorophenyl)-8-iodo-1,4-dimethyl-4H-[1,2,4]triazolo[4,3-a][1,4]benzodiazepine] | 89% | 1.89
C[C@@H]1N=C(c2c(F)cccc2F)c2c(ccc(Cl)c2Br)-n2c1n[nH]c2=O [Example 89, (4S)-7-bromo-8-chloro-6-(2,6-difluorophenyl)-4-methyl-2,4-dihydro-[1,2,4]triazolo[4,3-a][1,4]benzodiazepin-1-one] | 88% | 1.88
OC1N=C(c2c(F)cccc2F)c2c(ccc(Br)c2Cl)-n2cnnc21 (stereo not shown) [Example 31, 8-bromo-7-chloro-6-(2,6-difluorophenyl)-4H-[1,2,4]triazolo[4,3-a][1,4]benzodiazepin-4-ol] | 74% | 1.74
